# In PubChem BioAssay AID248 (DTP/NCI, 2004):
# Where “and” joins values, the source holds several entries; their conditions need not be identical. Identical values can stand only once. Inconclusive results and toxic doses are left out.
# Test system: L1210 leukemia ip in BDF1 mice, survival T/C
# Assay: NCI In Vivo Anticancer Drug Screen. Data for tumor model L1210 Leukemia (intraperitoneal) in B6D2F1 (BDF1) mice
# Conditions: endpoint: mean survival time, higher = longer survival
# How it was run: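 In this screen, tumor-bearing mice given compound are compared to those given vehicle, and their survival values are reported as a treated-to-control quotient.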
# [1] = dose: 100.0 mg/kg/injection, schedule: Q01DX009 (ip), vehicle: saline
# [2] = dose: 100.0 mg/kg/injection, schedule: Q04DX003 (ip), vehicle: saline
# [3] = dose: 200.0 mg/kg/injection, schedule: Q04DX003 (ip), vehicle: saline
# [4] = dose: 400.0 mg/kg/injection, schedule: Q04DX003 (ip), vehicle: saline
# [5] = dose: 100.0 mg/kg/injection, schedule: Q01DX009 (ip), vehicle: Klucel (hydroxypropylcellulose) (HPC)
# [6] = dose: 200.0 mg/kg/injection, schedule: Q01DX009 (ip), vehicle: Klucel (hydroxypropylcellulose) (HPC)
# [7] = dose: 400.0 mg/kg/injection, schedule: Q01DX009 (ip), vehicle: Klucel (hydroxypropylcellulose) (HPC)
# [8] = dose: 100.0 mg/kg/injection, schedule: Q01DX001 (ip), vehicle: saline
# [9] = dose: 200.0 mg/kg/injection, schedule: Q01DX001 (ip), vehicle: saline
# [10] = dose: 400.0 mg/kg/injection, schedule: Q01DX001 (ip), vehicle: saline
# [11] = dose: 100.0 mg/kg/injection, schedule: Q04DX003 (ip), vehicle: saline with Tween-80
# [12] = dose: 50.0 mg/kg/injection, schedule: Q01DX009 (ip), vehicle: saline
# [13] = dose: 400.0 mg/kg/injection, schedule: Q01DX009 (ip), vehicle: saline
# [14] = dose: 100.0 mg/kg/injection, schedule: Q04DX003 (ip), vehicle: Klucel (hydroxypropylcellulose) (HPC)
compound,measurement,setting,value
Cc1ccc2c[c]1[Hg][CH2]COS2(=O)=O,T/C,"dose: 3.12 mg/kg/injection, schedule: Q04DX002 (ip), vehicle: Klucel (hydroxypropylcellulose) (HPC)",93 % of control
same,T/C,"dose: 6.25 mg/kg/injection, schedule: Q04DX002 (ip), vehicle: Klucel (hydroxypropylcellulose) (HPC)",101 % of control
same,T/C,"dose: 12.5 mg/kg/injection, schedule: Q04DX002 (ip), vehicle: Klucel (hydroxypropylcellulose) (HPC)",102 % of control and 90 % of control
CC(/C=C/c1ccccc1)=N\O,T/C,"dose: 100.0 mg/kg/injection, schedule: Q01DX009 (ip), vehicle: saline sonified",91 % of control
same,T/C,"dose: 200.0 mg/kg/injection, schedule: Q01DX009 (ip), vehicle: saline sonified",94 % of control
same,T/C,"dose: 400.0 mg/kg/injection, schedule: Q01DX009 (ip), vehicle: saline sonified",100 % of control
CN1CCC=Cc2ccccc21,T/C,[1],97 % of control
same,T/C,[2],92 % of control
same,T/C,[3],95 % of control
same,T/C,[4],90 % of control
CC(=O)Oc1ccc2c(c1)C(=O)C(Br)C1C2CCC2(C)C(OC(C)=O)CCC12 (stereo not drawn),T/C,"dose: 30.0 mg/kg/injection, schedule: Q01DX015 (sc), vehicle: steriod suspending solution",96 % of control
same,T/C,"dose: 60.0 mg/kg/injection, schedule: Q01DX015 (sc), vehicle: steriod suspending solution",97 % of control
same,T/C,"dose: 100.0 mg/kg/injection, schedule: Q01DX001 (sc), vehicle: steriod suspending solution",116 % of control
same,T/C,"dose: 120.0 mg/kg/injection, schedule: Q01DX015 (sc), vehicle: steriod suspending solution",97 % of control
same,T/C,"dose: 200.0 mg/kg/injection, schedule: Q01DX001 (sc), vehicle: steriod suspending solution",104 % of control
same,T/C,"dose: 240.0 mg/kg/injection, schedule: Q01DX015 (sc), vehicle: steriod suspending solution",100 % of control
same,T/C,"dose: 400.0 mg/kg/injection, schedule: Q01DX001 (sc), vehicle: steriod suspending solution",96 % of control
Cc1cc([N+](=O)[O-])ccc1NC(=O)Nc1cccc(C(F)(F)F)c1,T/C,[5],88 % of control
same,T/C,[6],92 % of control
same,T/C,[7],90 % of control
COP(=O)(O)CC(C)=O (tested in a mixture with another compound),T/C,"dose: 100.0 mg/kg/injection, schedule: Q04DX002 (ip), vehicle: saline",101 % of control
same,T/C,"dose: 200.0 mg/kg/injection, schedule: Q04DX002 (ip), vehicle: saline",101 % of control
same,T/C,"dose: 400.0 mg/kg/injection, schedule: Q04DX002 (ip), vehicle: saline",101 % of control
Nc1nnc2c(n1)[nH]c1ccccc12,T/C,"dose: 50.0 mg/kg/injection, schedule: Q01DX001 (ip), vehicle: saline",96 % of control
same,T/C,[8],100 % of control
same,T/C,[9],93 % of control
CC(=O)OC(C(=O)c1ccccc1)C(=O)c1ccccc1,T/C,"dose: 100.0 mg/kg/injection, schedule: Q01DX001 (ip), vehicle: Klucel (hydroxypropylcellulose) (HPC)",88 % of control
same,T/C,"dose: 200.0 mg/kg/injection, schedule: Q01DX001 (ip), vehicle: Klucel (hydroxypropylcellulose) (HPC)",108 % of control
same,T/C,"dose: 400.0 mg/kg/injection, schedule: Q01DX001 (ip), vehicle: Klucel (hydroxypropylcellulose) (HPC)",88 % of control
O=[N+]([O-])Nc1ccnnc1,T/C,[8],94 % of control
same,T/C,[9],96 % of control
same,T/C,[10],96 % of control
NC(=O)O/N=C/c1ccccn1,T/C,[11],105 % of control
same,T/C,"dose: 200.0 mg/kg/injection, schedule: Q04DX003 (ip), vehicle: saline with Tween-80",103 % of control
same,T/C,"dose: 400.0 mg/kg/injection, schedule: Q04DX003 (ip), vehicle: saline with Tween-80",106 % of control
CC(NC(=O)NCCCl)c1cccc([N+](=O)[O-])c1 (stereo not drawn),T/C,"dose: 100.0 mg/kg/injection, schedule: Q04DX002 (ip), vehicle: Klucel (hydroxypropylcellulose) (HPC)",94 % of control
same,T/C,"dose: 200.0 mg/kg/injection, schedule: Q04DX002 (ip), vehicle: Klucel (hydroxypropylcellulose) (HPC)",105 % of control
same,T/C,"dose: 400.0 mg/kg/injection, schedule: Q04DX002 (ip), vehicle: Klucel (hydroxypropylcellulose) (HPC)",119 % of control
CC(C)CC(=O)CC(O)(C(F)(F)F)C(F)(F)F,T/C,[12],101 % of control
same,T/C,"dose: 50.0 mg/kg/injection, schedule: Q04DX003 (ip), vehicle: saline",94 % of control
same,T/C,[1],104 % of control
same,T/C,[2],92 % of control
same,T/C,"dose: 200.0 mg/kg/injection, schedule: Q01DX009 (ip), vehicle: saline",104 % of control
same,T/C,[3],100 % of control
same,T/C,[13],93 % of control
same,T/C,[4],103 % of control
CC1(C)N=C(N)N=C(N)N1c1ccc(OCCCOc2ccccc2)c(Cl)c1,T/C,"dose: 50.0 mg/kg/injection, schedule: Q01DX009 (ip), vehicle: Klucel (hydroxypropylcellulose) (HPC)",98 % of control
same,T/C,[5],102 % of control
same,T/C,[14],92 % of control
same,T/C,"dose: 200.0 mg/kg/injection, schedule: Q04DX003 (ip), vehicle: Klucel (hydroxypropylcellulose) (HPC)",91 % of control
CC(C)(C)CN=C(N)N,T/C,[8],96 % of control
same,T/C,[9],94 % of control
same,T/C,[10],102 % of control
CCCC(CCCC(=O)O)C(=O)c1ccccc1 (stereo not drawn),T/C,"dose: 100.0 mg/kg/injection, schedule: Q01DX009 (ip), vehicle: saline with Tween-80",101 % of control
same,T/C,"dose: 200.0 mg/kg/injection, schedule: Q01DX009 (ip), vehicle: saline with Tween-80",104 % of control
same,T/C,"dose: 400.0 mg/kg/injection, schedule: Q01DX009 (ip), vehicle: saline with Tween-80",100 % of control
N=C(N)SCCN1C(=O)c2ccccc2C1=O,T/C,[11],103 % of control
CCCC[N+](CCCC)=c1cc(-c2ccc(Cl)cc2)ss1,T/C,"dose: 100.0 mg/kg/injection, schedule: Q04DX003 (ip), vehicle: water",95 % of control
same,T/C,"dose: 200.0 mg/kg/injection, schedule: Q04DX003 (ip), vehicle: water",96 % of control
N#CNC(=S)S,T/C,[2],105 % of control
same,T/C,[3],93 % of control
same,T/C,[4],104 % of control
CCC(=O)OC(CCN(C)C)(Cc1ccccc1)c1ccccc1 (stereo not drawn),T/C,"dose: 25.0 mg/kg/injection, schedule: Q01DX009 (ip), vehicle: saline",100 % of control
same,T/C,[12],95 % of control
same,T/C,[1],101 % of control
same,T/C,[2],93 % of control
COc1ccccc1C(=O)N/N=C/c1ccc(O)cc1,T/C,[5],101 % of control
same,T/C,[6],97 % of control
same,T/C,[7],94 % of control
CCOC(=O)c1ccc2c3c(ccc(C(=O)OCC)c13)C=C2,T/C,[8],88 % of control
same,T/C,[9],96 % of control
same,T/C,[10],100 % of control
CCCN(C)N=Nc1ccccc1C(=O)O,T/C,"dose: 12.5 mg/kg/injection, schedule: Q01DX009 (ip), vehicle: Klucel (hydroxypropylcellulose) (HPC)",106 % of control and 113 % of control and 124 % of control
same,T/C,"dose: 12.5 mg/kg/injection, schedule: Q04DX003 (ip), vehicle: Klucel (hydroxypropylcellulose) (HPC)",105 % of control
same,T/C,"dose: 25.0 mg/kg/injection, schedule: Q01DX009 (ip), vehicle: Klucel (hydroxypropylcellulose) (HPC)",114 % of control and 116 % of control
same,T/C,"dose: 25.0 mg/kg/injection, schedule: Q04DX003 (ip), vehicle: Klucel (hydroxypropylcellulose) (HPC)",118 % of control
same,T/C,"dose: 50.0 mg/kg/injection, schedule: Q04DX003 (ip), vehicle: Klucel (hydroxypropylcellulose) (HPC)",105 % of control
same,T/C,"dose: 75.0 mg/kg/injection, schedule: Q01DX009 (ip), vehicle: Klucel (hydroxypropylcellulose) (HPC)",87 % of control
same,T/C,[14],113 % of control
CCCCCCCCCCCCCCCCCCNC(=O)Cc1ccc(N(CCCl)CCCl)cc1,T/C,[5],94 % of control
same,T/C,[6],95 % of control
NC(CSC(c1ccccc1)(c1ccccc1)c1ccc(CO)cc1)C(=O)O (stereo not drawn),T/C,[13],150 % of control and 157 % of control
same,T/C,"dose: 600.0 mg/kg/injection, schedule: Q01DX009 (ip), vehicle: saline",168 % of control
